Experimental data from ChEMBL document CHEMBL2073839, “Heterologous expression and functional characterization of a mouse renal organic anion transporter in mammalian cells” (J Biol Chem, 1999).

Experiments:
Assay type in all cases: functional, cell-based
[1] = target: T1, Solute carrier family 22 member 6 (Mus musculus, UniProt Q8VC69); test: TP_TRANSPORTER: inhibition of PAH uptake (PAH: 20 uM, alpha-KG: 1000 uM) in OAT-expressing COS-7 cells; settings: monkey, cos-7, 1000 µM
T1 sequence (Q8VC69 whole entry): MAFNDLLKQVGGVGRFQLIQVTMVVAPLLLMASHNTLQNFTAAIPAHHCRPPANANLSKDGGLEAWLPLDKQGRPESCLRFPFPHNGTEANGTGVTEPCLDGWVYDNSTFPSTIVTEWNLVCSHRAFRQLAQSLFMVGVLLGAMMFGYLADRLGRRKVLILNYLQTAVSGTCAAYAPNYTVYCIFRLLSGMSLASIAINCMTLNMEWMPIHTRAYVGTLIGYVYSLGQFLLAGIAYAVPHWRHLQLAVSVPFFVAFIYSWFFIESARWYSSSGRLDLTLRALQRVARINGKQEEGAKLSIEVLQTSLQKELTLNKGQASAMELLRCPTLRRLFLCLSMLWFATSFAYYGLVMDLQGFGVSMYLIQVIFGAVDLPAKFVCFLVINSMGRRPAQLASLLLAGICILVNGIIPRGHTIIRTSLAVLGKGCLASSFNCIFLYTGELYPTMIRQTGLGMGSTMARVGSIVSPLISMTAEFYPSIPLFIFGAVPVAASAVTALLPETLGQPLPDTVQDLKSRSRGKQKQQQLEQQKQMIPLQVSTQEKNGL

[2] = target: T1, Solute carrier family 22 member 6; test: TP_TRANSPORTER: inhibition of PAH uptake (PAH: 20 uM, Captopril: 1000 uM) in OAT-expressing COS-7 cells; settings: monkey, cos-7, 1000 µM
[3] = target: T1, Solute carrier family 22 member 6; test: TP_TRANSPORTER: inhibition of PAH uptake (PAH: 20 uM, Carprofen: 1000 uM) in OAT-expressing COS-7 cells; settings: monkey, cos-7, 1000 µM
[4] = target: T1, Solute carrier family 22 member 6; test: TP_TRANSPORTER: inhibition of PAH uptake (PAH: 20 uM, Diclofenac: 1000 uM) in OAT-expressing COS-7 cells; settings: monkey, cos-7, 1000 µM
[5] = target: T1, Solute carrier family 22 member 6; test: TP_TRANSPORTER: inhibition of PAH uptake (PAH: 20 uM, Enalapril: 1000 uM) in OAT-expressing COS-7 cells; settings: monkey, cos-7, 1000 µM
[6] = target: T1, Solute carrier family 22 member 6; test: TP_TRANSPORTER: inhibition of PAH uptake (PAH: 20 uM, Folic acid: 1000 uM) in OAT-expressing COS-7 cells; settings: monkey, cos-7, 1000 µM
[7] = target: T1, Solute carrier family 22 member 6; test: TP_TRANSPORTER: inhibition of PAH uptake (PAH: 20 uM, Indomethacin: 1000 uM) in OAT-expressing COS-7 cells; settings: monkey, cos-7, 1000 µM
[8] = target: T1, Solute carrier family 22 member 6; test: TP_TRANSPORTER: inhibition of PAH uptake (PAH: 20 uM, Pantothenic acid: 1000 uM) in OAT-expressing COS-7 cells; settings: monkey, cos-7, 1000 µM
[9] = target: T1, Solute carrier family 22 member 6; test: TP_TRANSPORTER: inhibition of PAH uptake (PAH: 20 uM, Riboflavin: 1000 uM) in OAT-expressing COS-7 cells; settings: monkey, cos-7, 1000 µM
[10] = target: T1, Solute carrier family 22 member 6; test: TP_TRANSPORTER: inhibition of PAH uptake (PAH: 20 uM, Semustine: 300 uM) in OAT-expressing COS-7 cells; settings: monkey, cos-7, 300 µM
[11] = target: T1, Solute carrier family 22 member 6; test: TP_TRANSPORTER: inhibition of PAH uptake (PAH: 20 uM, Sulindac: 1000 uM) in OAT-expressing COS-7 cells; settings: monkey, cos-7, 1000 µM

SMILES: O=C(O)CCC(=O)C(=O)O [ALPHA-KETOGLUTARIC ACID]
- Activity [1]: inhibitor [(at a rough estimate) 10 % of control]

SMILES: C[C@H](CS)C(=O)N1CCC[C@H]1C(=O)O [CAPTOPRIL]
- Activity [2]: inhibitor [(at a rough estimate) 50 % of control]

SMILES: CC(C(=O)O)c1ccc2c(c1)[nH]c1ccc(Cl)cc12 (stereo unspecified) [CARPROFEN]
- Activity [3]: inhibitor [(at a rough estimate) 5 % of control]

SMILES: O=C(O)Cc1ccccc1Nc1c(Cl)cccc1Cl [DICLOFENAC]
- Activity [4]: inhibitor [(at a rough estimate) 5 % of control]

SMILES: CCOC(=O)[C@H](CCc1ccccc1)N[C@@H](C)C(=O)N1CCC[C@H]1C(=O)O [ENALAPRIL]
- Activity [5]: inhibitor [(at a rough estimate) 45 % of control]

SMILES: Nc1nc2ncc(CNc3ccc(C(=O)N[C@@H](CCC(=O)O)C(=O)O)cc3)nc2c(=O)[nH]1 [FOLIC ACID]
- Activity [6]: inhibitor [(at a rough estimate) 55 % of control]

SMILES: COc1ccc2c(c1)c(CC(=O)O)c(C)n2C(=O)c1ccc(Cl)cc1 [INDOMETHACIN]
- Activity [7]: inhibitor [(at a rough estimate) 5 % of control]

SMILES: CC(C)(CO)[C@@H](O)C(=O)NCCC(=O)O [PANTOTHENIC ACID]
- Activity [8]: inhibitor [(at a rough estimate) 60 % of control]

SMILES: Cc1cc2nc3c(=O)[nH]c(=O)nc-3n(C[C@H](O)[C@H](O)[C@H](O)CO)c2cc1C [RIBOFLAVIN]
- Activity [9]: inhibitor [(at a rough estimate) 40 % of control]

SMILES: CC1CCC(NC(=O)N(CCCl)N=O)CC1 (stereo unspecified) [SEMUSTINE]
- Activity [10]: inhibitor [(at a rough estimate) 35 % of control]

SMILES: CC1=C(CC(=O)O)c2cc(F)ccc2/C1=C\c1ccc([S+](C)[O-])cc1 (stereo unspecified) [SULINDAC]
- Activity [11]: inhibitor [(at a rough estimate) 5 % of control]
